In patent publication US10294248B2, “Beta-lactamase inhibitors” (VenatoRx Pharmaceuticals, Inc., priority 2013, dated 2019):
pIC50: −log10 of the molar value.

What was measured:
[1] = molecular target: T1, SHV-5 β-lactamase (Class A ESBL) (Klebsiella pneumoniae, UniProt P0A3M1); assay: β-Lactamase inhibition, SHV-5; assay type: biochemical
T1 construct: made in house; host or cells: E. coli BL21(DE3)
How it was run: (§1)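 Native untagged enzymes expressed in E. coli BL21(DE3), purified by cation exchange and gel filtration. Inhibitor preincubated with enzyme 15 min at 37 °C; hydrolysis followed by absorbance: imipenem at 300 nm for KPC-2, cefotaxime at 260 nm for SHV-5. IC50 as concentration halving initial hydrolysis rate versus inhibitor-free wells.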

[2] = molecular target: T2, KPC-2 β-lactamase (Class A carbapenemase) (Klebsiella pneumoniae, UniProt Q9F663); assay: β-Lactamase inhibition, KPC-2; assay type: biochemical; details: imipenem substrate, 300 nm; 15 min preincubation at 37° C., PBS pH 7.4
T2 construct: made in house; host or cells: E. coli BL21(DE3)
T2 sequence (Q9F663 25-293, looked up): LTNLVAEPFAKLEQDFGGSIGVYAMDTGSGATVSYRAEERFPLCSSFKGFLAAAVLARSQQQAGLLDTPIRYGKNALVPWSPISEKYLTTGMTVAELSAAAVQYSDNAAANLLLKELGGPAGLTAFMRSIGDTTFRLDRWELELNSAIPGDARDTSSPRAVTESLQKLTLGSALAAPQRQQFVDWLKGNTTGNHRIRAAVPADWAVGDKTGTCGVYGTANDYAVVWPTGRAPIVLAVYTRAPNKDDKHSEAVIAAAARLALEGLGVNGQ
How it was run: as §1

[3] = molecular target: T3, VIM-2 metallo-β-lactamase (Class B) (Pseudomonas aeruginosa, UniProt Q9K2N0); assay: β-Lactamase inhibition, VIM-2; assay type: biochemical; details: nitrocefin 100 μM, 486 nm; 15 min preincubation at 37° C., PBS pH 7.4
T3 construct: made in house; host or cells: E. coli BL21(DE3)
How it was run: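 Purified VIM-2 (Q sepharose anion exchange, Hepes pH 7.5, >90% pure) was preincubated with inhibitor at 37 °C for 15 min, then nitrocefin added at 100 μM final. Absorbance at 486 nm was followed for 10 min; IC50 was taken from maximum hydrolysis rates relative to inhibitor-free controls.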

[4] = molecular target: T4, p99 AmpC β-lactamase (Class C) (Enterobacter cloacae, UniProt P05364); assay: β-Lactamase inhibition, p99 AmpC; assay type: biochemical
T4 construct: made in house; host or cells: E. coli BL21(DE3)
T4 sequence (P05364 21-381): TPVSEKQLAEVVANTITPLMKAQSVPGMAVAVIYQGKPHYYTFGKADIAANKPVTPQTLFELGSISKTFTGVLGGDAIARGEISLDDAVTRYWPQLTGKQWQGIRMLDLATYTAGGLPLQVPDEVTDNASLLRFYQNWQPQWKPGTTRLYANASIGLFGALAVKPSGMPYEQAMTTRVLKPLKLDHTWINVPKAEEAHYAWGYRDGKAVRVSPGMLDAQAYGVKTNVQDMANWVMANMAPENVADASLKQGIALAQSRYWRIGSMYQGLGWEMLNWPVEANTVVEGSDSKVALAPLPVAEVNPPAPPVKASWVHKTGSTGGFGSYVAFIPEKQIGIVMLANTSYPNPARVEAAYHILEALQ

[5] = molecular target: T5, OXA-1 β-lactamase (Class D oxacillinase) (Escherichia coli, UniProt P13661); assay: β-Lactamase inhibition, OXA-1; assay type: biochemical; details: nitrocefin 100 μM, 486 nm; 15 min preincubation at 37° C., PBS pH 7.4
T5 construct: made in house; host or cells: E. coli BL21(DE3)
T5 sequence (P13661 26-276): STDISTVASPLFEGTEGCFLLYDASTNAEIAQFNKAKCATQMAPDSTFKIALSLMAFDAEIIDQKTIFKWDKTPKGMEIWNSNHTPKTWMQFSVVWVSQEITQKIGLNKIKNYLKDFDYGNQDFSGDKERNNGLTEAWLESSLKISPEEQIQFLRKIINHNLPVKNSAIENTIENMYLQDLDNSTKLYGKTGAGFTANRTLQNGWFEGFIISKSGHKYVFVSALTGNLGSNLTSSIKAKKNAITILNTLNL
How it was run: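 Untagged enzyme from E. coli BL21(DE3), purified by Capto S then Superdex 75; 15 min 37 °C preincubation with inhibitor; KPC-2 read with imipenem at 300 nm, SHV-5 with cefotaxime at 260 nm, OXA-1 with nitrocefin 100 μM final at 486 nm; 10 min kinetic read; IC50 vs uninhibited wells.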

[6] = test system: E. coli ESBL4 expressing CTX-M-15; assay: Broth microdilution MIC, E. coli ESBL4 CTX-M-15; assay type: cell-based; details: fixed 4 μg/mL ceftazidime; CAMHB, 16-20 hours at 37° C.
How it was run: (§2)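 Potentiation MIC by CLSI broth microdilution in cation-adjusted Mueller Hinton broth. Test compound was 2-fold serially diluted from 32 to 0.25 μg/ml with a β-lactam held at a static 4 μg/ml. After 16-20 h at 37° C, MIC was read visually.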

[7] = test system: E. cloacae 144200 expressing Class C P99 AmpC; assay: Broth microdilution MIC, E. cloacae 144200 p99 AmpC; assay type: cell-based; details: fixed 4 μg/mL ceftazidime; CAMHB, 16-20 hours at 37° C.
How it was run: as §2

[8] = test system: K. pneumoniae 156319 expressing KPC-3; assay: Broth microdilution MIC, K. pneumoniae 156319 KPC-3; assay type: cell-based; details: fixed 4 μg/mL meropenem; CAMHB, 16-20 hours at 37° C.
How it was run: as §2

[9] = test system: P. aeruginosa Ps296 expressing VIM-2; assay: Broth microdilution MIC, P. aeruginosa Ps296 VIM-2; assay type: cell-based; details: fixed 4 μg/mL meropenem; CAMHB, 16-20 hours at 37° C.
How it was run: as §2

[10] = test system: K. pneumoniae A-1797 expressing KPC-2 and VIM-4; assay: Broth microdilution MIC, K. pneumoniae A-1797 KPC-2/VIM-4; assay type: cell-based; details: fixed 4 μg/mL meropenem; CAMHB, 16-20 hours at 37° C.
How it was run: as §2

[11] = test system: S. aureus MSSA-7 producing penicillinase PC-1; assay: Broth microdilution MIC, S. aureus MSSA-7 PC-1; assay type: cell-based; details: fixed 4 μg/mL piperacillin; CAMHB, 16-20 hours at 37° C.
How it was run: as §2

T1 sequence (P0A3M1 22-286): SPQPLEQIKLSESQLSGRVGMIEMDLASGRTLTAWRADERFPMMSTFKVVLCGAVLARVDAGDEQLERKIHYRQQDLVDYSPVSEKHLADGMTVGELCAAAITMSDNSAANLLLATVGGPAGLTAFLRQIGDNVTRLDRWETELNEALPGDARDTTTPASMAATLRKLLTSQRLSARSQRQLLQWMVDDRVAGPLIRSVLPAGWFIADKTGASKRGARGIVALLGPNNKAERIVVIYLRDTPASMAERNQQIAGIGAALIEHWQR

Compound | pIC50 [1] | pIC50 [2] | pIC50 [3] | pIC50 [4] | pIC50 [5] | MIC of example compound in presence of fixed β-lactam: Fixed CAZ, E. coli ESBL4 CTX-M-15 [6] | MIC of example compound in presence of fixed β-lactam: Fixed CAZ, E. cl. 144200 p99 AmpC [7] | MIC of example compound in presence of fixed β-lactam: Fixed Mero, K. P. 156319 KPC-3 [8] | MIC of example compound in presence of fixed β-lactam: Fixed Mero, P. aerug. Ps296 VIM-2 [9] | MIC of example compound in presence of fixed β-lactam: Fixed Mero, K. P. A-1797 KPC-2 VIM-4 [10] | MIC of example compound in presence of fixed β-lactam: Fixed Pip, S. aureus MSSA-7 PC-1 [11]
NCCN1CCC(CCC(=O)N[C@H]2Cc3cccc(C(=O)O)c3OB2O)CC1 [Example 31, 3-{3-[1-(2-Amino-ethyl)-piperidin-4-yl]-propionylamino}-2-hydroxy-3,4-dihydro-2H-benzo[e][1,2]oxaborinine-8-carboxylic acid] | 6.00 to 7.00 | > 7.00 | 5.00 to 6.00 | > 7.00 | > 7.00 | C (the MIC in the presence of <4 μg/mL of a β-lactamase inhibitor) | C (the MIC in the presence of <4 μg/mL of a β-lactamase inhibitor) | C (the MIC in the presence of <4 μg/mL of a β-lactamase inhibitor) | C (the MIC in the presence of <4 μg/mL of a β-lactamase inhibitor) | B (the MIC in the presence of between 8 and 32 μg/mL of a β-lactamase inhibitor) | C (the MIC in the presence of <4 μg/mL of a β-lactamase inhibitor)
O=C(CC1CCNCC1)N[C@H]1Cc2cccc(C(=O)O)c2OB1O [Example 32, 2-Hydroxy-3-(2-piperidin-4-yl-acetylamino)-3,4-dihydro-2H-benzo[e][1,2]oxaborinine-8-carboxylic acid] | 4.00 to 5.00 | 6.00 to 7.00 | 4.00 to 5.00 | > 7.00 | 6.00 to 7.00 | C (the MIC in the presence of <4 μg/mL of a β-lactamase inhibitor) | C (the MIC in the presence of <4 μg/mL of a β-lactamase inhibitor) | A (an MIC of the fixed β-lactam antibiotic in the presence of >32 μg/mL of a β-lactamase inhibitor) | A (an MIC of the fixed β-lactam antibiotic in the presence of >32 μg/mL of a β-lactamase inhibitor) | A (an MIC of the fixed β-lactam antibiotic in the presence of >32 μg/mL of a β-lactamase inhibitor) | C (the MIC in the presence of <4 μg/mL of a β-lactamase inhibitor)
N=C(N)NCCN1CCC(CCC(=O)N[C@H]2Cc3cccc(C(=O)O)c3OB2O)CC1 [Example 34, 3-{3-[1-(2-Guanidino-ethyl)-piperidin-4-yl]-propionylamino}-2-hydroxy-3,4-dihydro-2H-benzo[e][1,2]oxaborinine-8-carboxylic acid] | > 7.00 | 6.00 to 7.00 | 4.00 to 5.00 | 6.00 to 7.00 | 6.00 to 7.00 | C (the MIC in the presence of <4 μg/mL of a β-lactamase inhibitor) | C (the MIC in the presence of <4 μg/mL of a β-lactamase inhibitor) | A (an MIC of the fixed β-lactam antibiotic in the presence of >32 μg/mL of a β-lactamase inhibitor) | A (an MIC of the fixed β-lactam antibiotic in the presence of >32 μg/mL of a β-lactamase inhibitor) | A (an MIC of the fixed β-lactam antibiotic in the presence of >32 μg/mL of a β-lactamase inhibitor) | C (the MIC in the presence of <4 μg/mL of a β-lactamase inhibitor)
N#CCN1CCC(CC(=O)N[C@H]2Cc3cccc(C(=O)O)c3OB2O)CC1 [Example 35, 3-[2-(1-Cyanomethyl-piperidin-4-yl)-acetylamino]-2-hydroxy-3,4-dihydro-2H-benzo[e][1,2]oxaborinine-8-carboxylic acid] | 6.00 to 7.00 | 6.00 to 7.00 | 4.00 to 5.00 | 6.00 to 7.00 | 6.00 to 7.00 | C (the MIC in the presence of <4 μg/mL of a β-lactamase inhibitor) | C (the MIC in the presence of <4 μg/mL of a β-lactamase inhibitor) | B (the MIC in the presence of between 8 and 32 μg/mL of a β-lactamase inhibitor) | A (an MIC of the fixed β-lactam antibiotic in the presence of >32 μg/mL of a β-lactamase inhibitor) | B (the MIC in the presence of between 8 and 32 μg/mL of a β-lactamase inhibitor) | C (the MIC in the presence of <4 μg/mL of a β-lactamase inhibitor)
NCCN1CCN(CC(=O)N[C@H]2Cc3cccc(C(=O)O)c3OB2O)C(=O)C1 [Example 36, 3-{2-[4-(2-Amino-ethyl)-2-oxo-piperazin-1-yl]-acetylamino}-2-hydroxy-3,4-dihydro-2H-benzo[e][1,2]oxaborinine-8-carboxylic acid] | > 7.00 | 6.00 to 7.00 | 5.00 to 6.00 | > 7.00 | > 7.00 | C (the MIC in the presence of <4 μg/mL of a β-lactamase inhibitor) | C (the MIC in the presence of <4 μg/mL of a β-lactamase inhibitor) | B (the MIC in the presence of between 8 and 32 μg/mL of a β-lactamase inhibitor) | B (the MIC in the presence of between 8 and 32 μg/mL of a β-lactamase inhibitor) | B (the MIC in the presence of between 8 and 32 μg/mL of a β-lactamase inhibitor) | C (the MIC in the presence of <4 μg/mL of a β-lactamase inhibitor)
N=C(N)NCC1CCCN(CC(=O)N[C@H]2Cc3cccc(C(=O)O)c3OB2O)C1 (stereo partly drawn) [Example 37, 3-[2-(3-Guanidinomethyl-piperidin-1-yl)-acetylamino]-2-hydroxy-3,4-dihydro-2H-benzo[e][1,2]oxaborinine-8-carboxylic acid] | 6.00 to 7.00 | 6.00 to 7.00 | 6.00 to 7.00 | > 7.00 | 6.00 to 7.00 | C (the MIC in the presence of <4 μg/mL of a β-lactamase inhibitor) | C (the MIC in the presence of <4 μg/mL of a β-lactamase inhibitor) | C (the MIC in the presence of <4 μg/mL of a β-lactamase inhibitor) | A (an MIC of the fixed β-lactam antibiotic in the presence of >32 μg/mL of a β-lactamase inhibitor) | B (the MIC in the presence of between 8 and 32 μg/mL of a β-lactamase inhibitor) | C (the MIC in the presence of <4 μg/mL of a β-lactamase inhibitor)
